The record followed here is ChEMBL document CHEMBL1155903, “Cytotoxic calanquinone A from Calanthe arisanensis and its first total synthesis” (Bioorg Med Chem Lett, 2008).

Common to all, as to format: functional, cell-based
The subject of experiment [1] is DU-145. Briefly: Cytotoxicity against human DU145 cells.
The test system of experiment [2] is PC-3. The experiment is described as follows: Cytotoxicity against human PC3 cells.
The test system of experiment [3] is A549. Briefly: Cytotoxicity against human A549 cells.
Experiment [4] can be described thus: Cytotoxicity against human KBVIN cells.
Experiment [5] concerns HCT-8. Briefly: Cytotoxicity against human HCT8 cells.
Experiment [6] concerns MCF7. The experiment is described as follows: Cytotoxicity against human MCF7 cells.
In experiment [7] the test system is KB. Briefly: Cytotoxicity against human KB cells.
The next experiment has as its system KBVIN. The experiment is described as follows: Cytotoxicity against human KBVIN cells up to 20 ug/mL.
The test system of experiment [8] is PC-3. The experiment is described as follows: Cytotoxicity against human PC3 cells up to 20 ug/mL.
The subject of experiment [9] is MCF7. The experiment is described as follows: Cytotoxicity against human MCF7 cells up to 20 ug/mL.
For experiment [10], the system named is HCT-8. Briefly: Cytotoxicity against human HCT8 cells up to 20 ug/mL.
Experiment [11] relates to KB. Briefly: Cytotoxicity against human KB cells up to 20 ug/mL.
For experiment [12], the system named is A549. Briefly: Cytotoxicity against human A549 cells up to 20 ug/mL.
For experiment [13], the system named is DU-145. The experiment is described as follows: Cytotoxicity against human DU145 cells up to 20 ug/mL.
[14] abbreviates: Homo sapiens, DU-145, read-out: EC50.
The mark [15] stands for this setting: Homo sapiens, PC-3, read-out: EC50.
Where [16] appears, read: Homo sapiens, A549, read-out: EC50.
The mark [17] stands for this setting: Homo sapiens, KBVIN, read-out: EC50.
The mark [18] stands for this setting: Homo sapiens, KB, read-out: EC50.

Structures are written as SMILES. Converted amounts (≈) assume the structure as drawn. The source made the active and inactive calls. The rule behind the calls is not given here.

Consider `COC(=O)C1=C(c2c(C)cc(OC)c(OC)c2OC)C(=O)C(OC)=CC1=O`, for which the EC50 in the experiment on DU-145 [1] (setting [14]) turned out to be 4.74 µg/mL (≈ 12.6 µM); with PC-3 [2] (setting [15]) it was 6.09 µg/mL (≈ 16.2 µM); in the experiment with A549 [3] (setting [16]) it was 6.12 µg/mL (≈ 16.3 µM); in experiment [4] (setting [17]), 5.48 µg/mL (≈ 14.6 µM); in the experiment on HCT-8 [5] it was 5.85 µg/mL (≈ 15.5 µM); in the experiment on MCF7 [6], 6.4 µg/mL (≈ 17 µM). In the experiment on KB [7] (setting [18]), the concentration for a half-maximal effect (EC50) was 4.02 µg/mL (≈ 10.7 µM).

Consider `COC1=CC(=O)c2ccc3cc(OC)c(OC)c(O)c3c2C1=O` [CALANQUINONE A], for which the EC50 in the experiment on DU-145 [1] (du-145) amounted to 0.48 µg/mL (≈ 1.53 µM); with PC-3 [2] (pc-3), 0.75 µg/mL (≈ 2.39 µM); in the experiment on A549 [3] (a549), 0.31 µg/mL (≈ 0.986 µM); in experiment [4] (kbvin), 0.24 µg/mL (≈ 0.764 µM); with HCT-8 [5], 0.29 µg/mL (≈ 0.923 µM); in the experiment with KB [7] (kb), 0.3 µg/mL (≈ 0.955 µM).

For the molecule `COc1cc2ccc3c(OC)cc(OC)c(OC)c3c2c(OC)c1OC`, the result in the experiment with KBVIN, in the experiment on PC-3 [8], in the experiment with MCF7 [9], in the experiment on HCT-8 [10], with KB [11] and with A549 [12] was inactive. Also, in the experiment on DU-145 [13], the result was inactive.

With `COC1=CC(=O)C(C=O)=C(c2c(C)cc(OC)c(OC)c2OC)C1=O`, the outcome with KBVIN, in the experiment on PC-3 [8], with MCF7 [9], with HCT-8 [10], in the experiment on KB [11] and in the experiment with A549 [12] was inactive. Besides, in the experiment on DU-145 [13], the outcome was inactive.

As for `COC1=CC(=O)c2ccc3cc(OC)c(OC)c(OC)c3c2C1=O`, the EC50 in the experiment with DU-145 [1] (setting [14]) is 4.4 µg/mL (≈ 13.4 µM); in the experiment with PC-3 [2] (setting [15]), 7.81 µg/mL (≈ 23.8 µM); in the experiment with A549 [3] (setting [16]), 7.06 µg/mL (≈ 21.5 µM); in experiment [4] (setting [17]) it was 9.14 µg/mL (≈ 27.8 µM); in the experiment with HCT-8 [5], 15.2 µg/mL (≈ 46.4 µM); with MCF7 [6], 5.33 µg/mL (≈ 16.2 µM). Besides, in the experiment on KB [7] (setting [18]), the concentration for a half-maximal effect (EC50) is 8.08 µg/mL (≈ 24.6 µM).

`COc1cc(OC)c(OC)c(-c2c(C)cc(OC)c(OC)c2OC)c1C=O`: the result in the experiment with KBVIN, with PC-3 [8], with MCF7 [9], in the experiment with HCT-8 [10], in the experiment with KB [11] and in the experiment on A549 [12] was inactive. Also, the outcome in the experiment with DU-145 [13] was inactive.

Turning to `COC1=CC(=O)c2ccc3ccccc3c2C1=O` [ANNOQUINONE A], in the experiment with KB [7] (setting [18]), the EC50 was 1.6 µg/mL (≈ 6.72 µM).

What is called EC50 is the concentration giving half of the maximal effect.
